Like-named read-outs stand apart in the source and are kept apart here.
Columns and labels:
[1] = target: T1, human serotonin 2C receptor (h-5-HT2C) (Homo sapiens (Human), UniProt P28335); assay: 5-HT2C receptor agonistic action assay (FLIPR Calcium 4 Assay kit, h-5-HT2C/CHO cells); type: cell-based
Method: 3-1. The Cells and Inoculation Thereof
In the experiment, human serotonin 2C receptor (h-5-HT2C) was expressed in CHO cells (h-5-HT2C/CHO). The cells were incubated with UltraCHO Lipuid (trademark) (manufactured by BioWhitakker) containing 1% FBS, 400 μg/mL Geneticin, 100 U/mL penicillin—100 μg/mL streptomycin (all manufactured by Sigma Aldrich) and 250 μg/mL Zeosin (manufactured by InvivoGen) in an incubator containing 5% CO2. On the day before using the cells, they were detached and collected using 250 μg/mL Trypsin solution (manufactured by Nacalai Tesque), then inoculated in a 96 well flat clear bottom black polystyrene TC-treated microplates (manufactured by Corning) at 40000 cells/well/60 μL in an incubator containing 5% CO2 for 16 hours to 24 hours.
3-2. 5-HT2C Receptor Agonistic Action Assay
The 5-HT2C receptor agonistic action was evaluated with FLIPR Calcium 4 Assay kit (manufactured by Molecular Devices). In specific, to the cells inoculated in the plate were added Component A of FLIPR Calcium 4 Assay kit dissolved in 100 mL of HHBP buffer (1×Hanks buffer, 20 mmol/L HEPES, both manufactured by Gibco) at an amount of 40 μL/well, and the cells were incubated in an incubator containing 5% CO2 for 1 hour. Then, the cells were set in FLIPR TETRA (trademark) (manufactured by Molecular Devices), to the cells was added the test material diluted with HHBP buffer, 2.5 mmol/L Probenecid (manufactured by Sigma) (concentration after dilution: 10 μmol/L) at an amount of 20 μL/well, and the fluorescence was measured. Then, in order to evaluate the antagonistic action of the test material, 20 μL/well of 5-HT solution (manufactured by Sigma, final concentration: 0.1 nmol/L) was further added to the cells, and the fluorescence was measured.
The 5-HT2C receptor agonistic action of each test material was calculated as a rate of fluorescence enhancement wherein 100% was defined as a value when the cells were given 10 μmol/L 5-HT. Furthermore, the 5-HT2C receptor inverse agonistic action was calculated as a rate of fluorescence decay wherein −100% was defined as a value when the cells were given 10 μmol/L SB206553 (manufactured by Sigma Aldrich). A lower value of the 5-HT2C receptor agonistic action of the test material means that the material has a higher antagonistic action. In particular, when the value of the 5-HT2C receptor agonistic action of the test material is below 0%, the material has an inverse agonistic action for 5-HT2C receptor.

[2] = target: human serotonin transporter (h-SERT) (Homo sapiens (Human), UniProt P31645); assay: [3H] citalopram binding assay to evaluate human serotonin reuptake inhibitory action (h-SERT binding assay); conditions: [3H] citalopram binding; read-out: Test Ex. 1: h-SERT binding inhibition constant Ki
Method: Citalopram Binding Assay to Evaluate Human Serotonin Reuptake Inhibitory Action
(§1) Preparation of the Cells and Membrane Preparations
In the experiment, human serotonin transporter (h-SERT) was expressed in CHO cells (h-SERT/CHO). The cells were incubated with F12 containing 10% FCS, 500 μg/mL Geneticin and 100 U/mL penicillin—100 μg/mL streptmycin (all manufactured by Sigma Aldrich) in an incubator containing 5% CO2; detached and collected using a SERT buffer [50 mmol/L Tris-HCl comprising 120 mmol/L NaCl and 5 mmol/L KCl (pH=7.4)]; homogenized with a homogenizer manufactured by Teflon (trademark); and then centrifuged (50,000×g, 30 min, 4° C.). The precipitate was suspended again in the appropriate amount of SERT buffer (to give a membrane preparation), and stored at −80° C. until used. The amount of protein in the membrane preparation was assayed by Dye Reagent Concentrate (manufactured by BIO-RAD) using bovine serum albumin (manufactured by Sigma Aldrich) as a standard.
1-2. h-SERT Binding Assay
The [^3H] citalopram binding was measured according to the method disclosed in Owens M. J. et al., J. Pharm. […] The solution was reacted at room temperature for 60 minutes, and then quickly suction-filtered under reduced pressure through a glass fiber filter coated with 0.05% aq. polyethyleneimine. The glass fiber filter was washed twice with […] of the SERT buffer, placed in a plastic vial containing 4 mL of liquid scintillator (ACS-II, manufactured by Amersham) or Ecoscint A (manufactured by National Diagnostics), and the remaining radioactivity on the filter paper was assayed with a liquid scintillation counter.

[3] = target: T1, human serotonin 2C receptor (h-5-HT2C); assay: [3H] mesulergine binding assay to evaluate affinity for human 5-HT2C receptor; conditions: h-5-HT2C/CHO membrane preparation, read-out: Test Ex. 2: 5-HT2C receptor binding inhibition constant Ki
Method: Mesulergine Binding Assay to Evaluate Affinity for Human 5-HT2C Receptor
as §1
In the experiment, human serotonin 2C receptor (h-5-HT2C) was expressed in CHO cells (h-5-HT2C/CHO). The cells were incubated with UltraCHO Lipuid (trademark) (manufactured by BioWhitakker) containing 1% FBS, 400 μg/mL Geneticin, 100 U/mL penicillin—100 μg/mL streptomycin (all manufactured by Sigma Aldrich) and 250 μg/mL Zeosin (manufactured by InvivoGen) in an incubator containing 5% CO2; detached and collected using 50 mmol/L Tris-HCl (pH=7.4); homogenized with a homogenizer manufactured by Teflon (trademark); and then centrifuged (48,000×g, 25 min, 4° C.). The precipitate was suspended again in the appropriate amount of 50 mmol/L Tris-HCl (to give a membrane preparation), and stored at −80° C. until used. The amount of protein in the membrane preparation was assayed by Dye Reagent Concentrate (manufactured by BIO-RAD) using bovine serum albumin (manufactured by Sigma Aldrich) as a standard.
2-2. 5-HT2C Receptor Binding Assay
A solution of 200 μL in total was prepared by mixing 50 μL of [^3H] mesulergine (manufactured by GE Healthcare) diluted with 50 mmol/L Tris-HCl (pH=7.4) (final concentration: about 2 nmol/L), 149 μL of the h-5-HT2C/CHO membrane preparation (protein amount: 20 μg/well), and 1 μL of the test drug dissolved in dimethylsulfoxide. The solution was reacted at 37° C. for 30 minutes, and then quickly suction-filtered under reduced pressure through a glass fiber filter coated with 1% aq. bovine serum albumin. The glass fiber filter was washed twice with 250 μL of 50 mmol/L Tris-HCl (pH=7.4), placed in a plastic vial containing 4 mL of liquid scintillator (ACS-II, manufactured by Amersham) or Ecoscint A (manufactured by National Diagnostics), and the remaining radioactivity on the filter paper was assayed with a liquid scintillation counter. The non-specific binding of [^3H] mesulergine was defined as a binding amount in the presence of 10 μmol/L SB206553 (manufactured by Sigma Aldrich). The IC50 value was calculated according to Hill analysis, and the binding inhibition constant (Ki) was calculated according to the following formula: Binding inhibition constant (Ki)=IC50/(1+S/Kd) wherein S is a concentration of the added [^3H] mesulergine, and Kd is a binding dissociation constant of [^3H] mesulergine which was calculated from a saturated binding assay using the same cell membrane.

[4] = test material 10 μmol/L, 100% = 10 μmol/L 5-HT, −100% = 10 μmol/L SB206553, below 0% = inverse agonistic action

T1 sequence (P28335 whole entry, looked up): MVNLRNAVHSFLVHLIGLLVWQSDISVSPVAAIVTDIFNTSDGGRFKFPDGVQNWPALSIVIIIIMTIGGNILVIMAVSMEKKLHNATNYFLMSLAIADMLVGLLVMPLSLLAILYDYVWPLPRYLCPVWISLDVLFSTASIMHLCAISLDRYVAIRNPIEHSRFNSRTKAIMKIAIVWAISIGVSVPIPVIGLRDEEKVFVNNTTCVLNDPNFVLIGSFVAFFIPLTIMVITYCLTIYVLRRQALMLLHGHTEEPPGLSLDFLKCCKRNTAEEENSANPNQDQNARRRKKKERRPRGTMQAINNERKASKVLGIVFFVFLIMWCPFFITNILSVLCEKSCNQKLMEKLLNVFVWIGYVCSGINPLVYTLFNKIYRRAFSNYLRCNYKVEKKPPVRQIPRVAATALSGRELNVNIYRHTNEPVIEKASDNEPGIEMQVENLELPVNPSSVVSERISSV

Row | Compound | Test Ex. 3: 5-HT2C receptor agonistic action [1, 4] | Ki [2] | Ki [3] | Test Ex. 3: 5-HT2C receptor agonistic action [1]
1 | CNCc1cc(OCc2cc(Cl)ccc2F)n(CC2CCCCO2)n1.Cl (single isomer, unassigned; (+)) [Example 475, (+)-1-{5-[(5-chloro-2-fluorobenzyl)oxy]-1-(tetrahydro-2H-pyran-2-ylmethyl)-1H-pyrazol-3-yl}-N-methylmethanamine] | −95% | – | – | –
2 | CNC(C)c1cc(OCc2cc(F)ccc2F)n(CCC2CCCC2)n1 (single isomer, unassigned; (+)) [Example 477, (+)-1-{1-(2-cyclopentylethyl)-5-[(2,5-difluorobenzyl)-oxy]-1H-pyrazol-3-yl}-N-methylethanamine] | −94% | – | – | –
3 | CNCc1cc(OCc2cc(Cl)ccc2F)n(CC2CCCCO2)n1 (single isomer, unassigned; (-)) [Example 474, (−)-1-{5-[(5-chloro-2-fluorobenzyl)oxy]-1-(tetrahydro-2H-pyran-2-ylmethyl)-1H-pyrazol-3-yl}-N-methylmethanamine] | −111% | – | – | –
4 | CNC(C)c1cc(OCc2cc(F)ccc2F)n(CCC2CCCC2)n1 (single isomer, unassigned; (-)) [Example 476, (−)-1-{1-(2-cyclopentylethyl)-5-[(2,5-difluorobenzyl)-oxy]-1H-pyrazol-3-yl}-N-methylethanamine] | −72% | – | – | –
5 | CNCc1cc(OCc2cccc(OC)c2)n(CC2CCCCC2)n1 [Compound 42] | −106% | 4.9 nM | – | –
6 | CNCc1cc(OCc2ccc(F)cc2C)n(CC2CCCCO2)n1 (centres unmarked) [Compound 108] | −117% | 1.9 nM | 18 nM | –
7 | CNCc1cc(OCc2cc(Cl)ccc2F)n(CCC(C)OC)n1 (centres unmarked) [Compound 405] | −90% | 11 nM | 23 nM | –
8 | CNCc1cc(OCc2cc(Cl)ccc2F)n(CC2(OC)CCCCC2)n1 [Compound 434] | −87% | 4.5 nM | – | –
9 | CNCc1cc(OCc2ccccc2)n(CCCc2ccccc2)n1 [Example 3, 1-[5-(Benzyloxy)-1-(3-phenylpropyl)-1H-pyrazol-3-yl]-N-methylmethanamine] | – | 12 nM | 5.4 nM | −91%
10 | CNCc1cc(OCc2ccccc2)n(CC2CCCCC2)n1 [Example 5, 1-[5-(Benzyloxy)-1-(cyclohexylmethyl)-1H-pyrazol-3-yl]-N-methylmethanamine] | – | 1.5 nM | 4.4 nM | −91%
11 | CNCc1cc(OCc2ccc(F)cc2F)n(CC2CCCC2)n1 [Example 144, 1-{1-(cyclopentylmethyl)-5-[(2,4-difluorobenzyl)oxy]-1H-pyrazol-3-yl}-N-methylmethanamine] | – | 8.3 nM | 2.2 nM | −127%
12 | CNCc1cc(OCc2ccccc2F)n(Cc2ccc(F)cc2)n1 [Example 218, 1-{1-(4-fluorobenzyl)-5-[(2-fluorobenzyl)oxy]-1H-pyrazol-3-yl}-N-methylmethanamine] | −111% | 9.7 nM | 10 nM | –
13 | CCC(CC)n1nc(CNC)cc1OCc1ccc(F)cc1Cl [Example 253] | −86% | 1.5 nM | 31 nM | –
14 | CNCc1cc(OCc2cc(Cl)ccc2F)n(CC(C)C)n1 [Example 256, 1-{5-[(5-chloro-2-fluorobenzyl)oxy]-1-(2-methylpropyl)-1H-pyrazol-3-yl}-N-methylmethanamine] | −97% | – | – | –
15 | CNCc1cc(OCc2cc(Cl)ccc2F)n(CC(C)(C)C)n1 [Example 259, 1-{5-[(5-chloro-2-fluorobenzyl)oxy]-1-(2,2-dimethylpropyl)-1H-pyrazol-3-yl}-N-methylmethanamine] | −119% | – | – | –
16 | CNCc1cc(OCc2cc(F)ccc2F)n(CCC(C)(C)C)n1 [Example 266, 1-{5-[(2,5-difluorobenzyl)oxy]-1-(3,3-dimethylbutyl)-1H-pyrazol-3-yl}-N-methylmethanamine] | −86% | – | – | –
17 | CNCc1cc(OCc2cc(Cl)ccc2F)n(CCC(C)(C)OC)n1 [Example 275, 1-{5-[(5-chloro-2-fluorobenzyl)oxy]-1-(3-methoxy-3-methylbutyl)-1H-pyrazol-3-yl}-N-methylmethanamine] | – | – | – | −88%
18 | CNC(C)c1cc(OCc2cc(F)ccc2F)n(CCC2CCCC2)n1 (centres unmarked) [Example 315, 1-{1-(2-cyclopentylethyl)-5-[(2,5-difluorobenzyl)oxy]-1H-pyrazol-3-yl}-N-methylethanamine] | −84% | – | – | –
19 | CNCc1cc(OCc2cc(F)ccc2F)n(CC2(C(F)(F)F)CCCC2)n1 [Example 447, 1-(5-[(2,5-difluorobenzyl)oxy]-1-{[1-(trifluoro-methyl)cyclopentyl]methyl}-1H-pyrazol-3-yl)-N-methylmethanamine] | – | 0.5 nM | 13 nM | –
20 | CNCc1cc(OCc2cc(Cl)ccc2F)n(CC2(C(F)(F)F)CCCC2)n1 [Example 448, 1-(5-[(5-chloro-2-fluorobenzyl)oxy]-1-{[1-(trifluoro-methyl)cyclopentyl]methyl}-1H-pyrazol-3-yl)-N-methylmethanamine] | – | 3.8 nM | 8.8 nM | –

— patent publication US10183913B2, “Pyrazole compound” (Sumitomo Dainippon Pharma Co., Ltd., priority 2010, dated 2019)
